# Tests used:
# [1] = test system: Escherichia coli (ATCC number 25922); assay: cold water washing of raw cabbage inoculated with E. coli suspension; settings: 25 g raw cabbage, 10 minutes, 21° C., pH 7.5 (ozone only) or 8.5 (with FIT 0.6 g/L)
# Escherichia coli = settings: in 19 minutes, raw waste water; cited from earlier work
# Candida tropicalis = settings: in 0.30 minutes, ozone-demand free water; cited from earlier work
# Naegleria gruberi = settings: in 1.1 minutes, ozone-demand free phosphate buffer solution; cited from earlier work
# Poliovirus type I = settings: cited from earlier work
# [2] = test system: bacterial spores (Bacillus subtilis v. globigii); settings: within 1.5-2 minutes, water purged with 3% ozone by weight; cited from earlier work
# [3] = test system: human immunodeficiency virus ("HIV"); settings: non-toxic concentration of 4 μg ozone per ml of serum; cited from earlier work
# [4] = relative to chlorine; cited from earlier work
structure (smiles),measurement,setting,value
O=[O+][O-] [ozone],decrease in E. coli relative to the control,[1],93%
same,ozone concentration giving a 99% reduction,Escherichia coli,2.2 mg/L
same,ozone concentration giving a 99% reduction,Candida tropicalis,0.02 mg/L
same,ozone concentration giving a 99% reduction,Naegleria gruberi,1.2 mg/L
same,ozone concentration giving a 99% reduction,Poliovirus type I,0.2 mg/L
same,log reduction of bacterial spores,[2],four
same,log reduction in the infectious titer,[3],six
same,"rate of disinfection, times faster than chlorine",[4],"more than 3,000 times"

# Source: patent US6458398B1, “Cold water disinfection of foods” (Eco Pure Food Safety Systems, Inc., priority 1999, dated 2002)
